# Measured values from the supplement of paper PMC10307832.
# Tests used:
# Experiment in all cases: relative viability (nuclei count vs DMSO), 5 days (fraction); higher = more cells survive
# Cabozantinib + AZD7762 = compound: COc1cc2nccc(Oc3ccc(NC(=O)C4(C(=O)Nc5ccc(F)cc5)CC4)cc3)c2cc1OC [Cabozantinib] + NC(=O)Nc1cc(-c2cccc(F)c2)sc1C(=O)N[C@H]1CCCNC1 [AZD7762] (partner 0.2 µM)
# Method in brief: (§1)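 For relative viability, nuclei counts in treated wells were divided by those in vehicle wells. Lung cancer cell lines had been pin-tool dosed in 1536-well plates the day after seeding and cultured for 5 days, then fixed and stained in one step (final 0.05% Triton X-100, 1% formaldehyde, 1 ug/ml Hoechst) and imaged at 4×. Doses were one drug alone or a fixed anchor-drug dose plus five library-drug doses (not always all listed) in √10 steps, and values are duplicate-plate medians.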
# [1] = compound: COc1cc2nccc(Oc3ccc(NC(=O)C4(C(=O)Nc5ccc(F)cc5)CC4)cc3)c2cc1OC [Cabozantinib] + Cc1cc(Nc2cc(N3CCN(C)CC3)nc(Sc3ccc(NC(=O)C4CC4)cc3)n2)n[nH]1 [Tozasertib] (partner 0.1 µM)
# Method in brief: as §1
# [2] = compound: COc1cc2nccc(Oc3ccc(NC(=O)C4(C(=O)Nc5ccc(F)cc5)CC4)cc3)c2cc1OC [Cabozantinib] + N=C(N)NC(=N)NCCc1ccccc1 [Phenformin] (partner 250 µM)
# Method in brief: as §1
# Kobe2602 + Luminespib = compound: C1=CC(=CC=C1NC(=S)NNC2=C(C=C(C=C2[N+](=O)[O-])C(F)(F)F)[N+](=O)[O-])F [Kobe2602] + CCNC(=O)c1noc(-c2cc(C(C)C)c(O)cc2O)c1-c1ccc(CN2CCOCC2)cc1 [Luminespib] (partner 0.01 µM)
# Method in brief: as §1
Cell Line,relative viability (Cabozantinib + AZD7762; first compound 0.02 µM),relative viability (Cabozantinib + AZD7762; first compound 0.06325 µM),relative viability (Cabozantinib + AZD7762; first compound 0.2 µM),relative viability (Cabozantinib + AZD7762; first compound 0.6325 µM),relative viability (Cabozantinib + AZD7762; first compound 2 µM),relative viability ([1]; first compound 0.02 µM),relative viability ([1]; first compound 0.06325 µM),relative viability ([1]; first compound 0.2 µM),relative viability ([1]; first compound 0.6325 µM),relative viability ([1]; first compound 2 µM),relative viability ([2]; first compound 0.02 µM),relative viability ([2]; first compound 0.06325 µM),relative viability ([2]; first compound 0.2 µM),relative viability ([2]; first compound 0.6325 µM),relative viability ([2]; first compound 2 µM),relative viability (Kobe2602 + Luminespib; first compound 0.2 µM),relative viability (Kobe2602 + Luminespib; first compound 0.6325 µM),relative viability (Kobe2602 + Luminespib; first compound 2 µM),relative viability (Kobe2602 + Luminespib; first compound 6.325 µM),relative viability (Kobe2602 + Luminespib; first compound 20 µM)
201T,0.624,0.736,0.591,0.675,0.695,0.968,1.1,0.916,0.935,0.87,0.383,0.451,0.472,0.438,0.439,1.02,1.05,0.993,1.14,0.966
A549,–,–,–,–,–,–,–,–,–,–,0.407,0.173,0.215,0.156,0.147,–,–,–,–,–
A-427,0.757,0.806,0.788,0.772,0.683,0.316,0.201,0.209,0.213,0.185,0.374,0.321,0.427,0.359,0.232,0.943,0.872,0.85,0.893,0.911
ABC-1,0.678,0.843,0.733,0.844,0.632,0.194,0.195,0.265,0.194,0.218,0.244,0.276,0.235,0.28,0.218,0.785,0.851,–,0.494,0.887
BEN,0.624,0.891,0.746,0.773,0.59,0.512,0.474,0.507,0.56,0.461,0.251,0.259,0.284,0.268,0.274,0.507,0.576,0.386,0.481,0.436
CAL-12T,0.714,0.682,0.641,0.651,0.567,0.366,0.446,0.369,0.261,0.247,0.666,0.597,0.554,0.591,0.529,0.358,1.01,0.241,0.362,0.233
COR-L23,–,–,–,–,–,0.235,0.212,0.194,0.145,0.137,0.433,0.438,0.413,0.443,0.408,0.685,0.64,0.537,0.648,0.684
COR-L 105,–,–,–,–,–,0.397,0.457,–,0.361,0.342,0.387,0.477,–,0.581,0.481,0.591,0.896,0.848,0.643,0.719
ChaGo-K-1,0.927,0.943,0.868,0.872,0.857,0.263,0.203,0.234,0.23,0.201,0.424,0.519,0.469,0.513,0.501,0.684,0.53,0.743,0.617,0.507
EKVX,0.693,0.856,0.558,0.703,0.763,0.422,0.481,0.364,0.394,0.314,0.239,0.253,0.223,0.222,0.23,0.9,0.948,0.832,0.871,0.858
EMC-BAC-2,0.95,1.26,1.11,1.13,1.13,0.292,0.335,0.334,0.284,0.295,0.475,0.589,0.582,0.516,0.476,1.16,1.16,1.13,1.31,1.14
EPLC-272H,0.237,0.339,0.195,0.207,0.209,0.357,0.338,0.204,0.295,0.352,0.269,0.331,0.24,0.357,0.291,0.259,0.83,0.327,0.363,0.27
H3255,0.938,1.14,–,0.911,0.923,0.605,1.34,–,0.471,0.775,0.331,0.393,–,0.346,0.37,0.769,0.981,0.902,0.937,0.878
HARA,0.291,0.332,–,0.339,0.301,0.132,0.113,0.116,0.129,0.107,0.417,0.508,0.443,0.408,0.411,0.752,1.05,0.688,0.776,0.69
HCC-15,1.22,1.27,1.13,1.26,1.19,0.462,0.432,0.437,0.44,0.267,0.366,0.532,0.512,0.478,0.491,0.411,0.272,0.301,0.255,0.384
HCC-44,1.04,1.03,1.08,1.07,1.12,–,1.27,0.979,1,0.758,0.102,0.273,0.275,0.224,0.224,1.05,0.97,0.984,1.13,0.921
HCC-78,–,0.699,0.466,0.46,0.39,–,0.414,0.445,0.367,0.311,–,0.733,0.335,0.383,0.383,–,–,–,–,–

Cell Line,relative viability (Cabozantinib + AZD7762; first compound 0.02 µM),relative viability (Cabozantinib + AZD7762; first compound 0.06325 µM),relative viability (Cabozantinib + AZD7762; first compound 0.2 µM),relative viability (Cabozantinib + AZD7762; first compound 0.6325 µM),relative viability (Cabozantinib + AZD7762; first compound 2 µM),relative viability ([1]; first compound 0.02 µM),relative viability ([1]; first compound 0.06325 µM),relative viability ([1]; first compound 0.2 µM),relative viability ([1]; first compound 0.6325 µM),relative viability ([1]; first compound 2 µM),relative viability ([2]; first compound 0.02 µM),relative viability ([2]; first compound 0.06325 µM),relative viability ([2]; first compound 0.2 µM),relative viability ([2]; first compound 0.6325 µM),relative viability ([2]; first compound 2 µM),relative viability (Kobe2602 + Luminespib; first compound 0.2 µM),relative viability (Kobe2602 + Luminespib; first compound 0.6325 µM),relative viability (Kobe2602 + Luminespib; first compound 2 µM),relative viability (Kobe2602 + Luminespib; first compound 6.325 µM),relative viability (Kobe2602 + Luminespib; first compound 20 µM)
HCC-366,0.34,0.358,0.21,0.209,0.275,0.705,0.108,0.101,0.065,0.0583,0.675,0.612,0.653,0.623,0.581,–,–,–,–,–
HCC-827,0.189,0.268,–,0.225,0.189,0.456,0.481,–,0.436,0.414,0.425,0.441,–,0.417,0.381,0.856,0.793,0.619,0.369,0.831
NCI-H520,–,–,–,–,–,0.52,0.442,0.432,0.392,0.386,0.608,0.598,0.65,0.672,0.432,0.256,0.193,0.224,0.206,0.215
NCI-H661,–,–,–,–,–,0.374,0.361,0.388,0.393,0.375,0.273,0.252,0.283,0.335,0.286,0.945,0.904,0.948,0.946,0.9
NCI-H1563,–,–,–,–,–,–,–,–,–,–,0.601,0.668,0.658,0.702,0.709,0.579,0.492,0.52,0.543,0.512
NCI-H1623,–,–,–,–,–,0.4,0.42,0.427,0.443,0.455,0.545,0.667,0.526,0.519,0.585,0.578,0.427,0.571,0.368,0.491
NCI-H1648,0.792,0.737,–,0.721,0.73,0.704,0.658,0.51,0.59,0.385,–,–,–,–,–,–,–,–,–,–
NCI-H1650,–,–,–,–,–,0.384,0.612,0.356,0.34,0.244,0.434,0.556,0.395,0.43,0.376,0.188,0.185,0.177,0.211,0.178
NCI-H1703,0.118,0.129,0.133,0.136,0.139,–,–,–,–,–,–,–,–,–,–,–,–,–,–,–
NCI-H1792,–,1.05,0.684,0.506,0.335,–,–,–,–,–,–,0.374,0.37,0.254,0.251,0.319,0.58,0.47,0.558,0.517
NCI-H2009,–,–,–,–,–,0.827,0.889,0.768,0.699,0.668,0.532,0.549,0.547,0.518,0.459,1.04,1.1,1.07,1.09,0.964
NCI-H2023,–,–,–,–,–,0.401,0.437,0.301,0.232,0.15,0.444,0.463,0.337,0.26,0.236,0.596,0.783,0.759,0.528,0.156
NCI-H2228,–,–,–,–,–,0.342,0.306,0.296,0.29,0.196,0.392,0.359,0.298,0.471,0.35,0.129,0.177,0.198,0.145,0.165
SK-LU-1,–,–,–,–,–,0.414,0.371,0.378,0.342,0.299,0.587,0.791,0.552,0.476,0.438,0.204,0.222,0.189,0.188,0.205
SK-MES-1,–,–,–,–,–,1.09,0.991,0.999,0.927,0.753,0.701,0.688,0.705,0.667,0.631,0.67,0.778,0.853,0.832,0.406
SW 1573,–,–,–,–,–,0.149,0.146,0.18,0.148,0.177,0.45,0.368,0.331,0.365,0.345,0.202,0.212,0.21,0.458,0.0872
